Measured values from ChEMBL document CHEMBL2407067, “Pyridone-conjugated monobactam antibiotics with gram-negative activity” (J Med Chem, 2013).
≈ marks a conversion by molar mass, not a printed value.

How the values were obtained:
[1] = Inhibition of PBP1a in Pseudomonas aeruginosa ATCC 27853 after 20 mins by fluorescence assay
[2] = Inhibition of PBP3 in Pseudomonas aeruginosa ATCC 27853 after 20 mins by fluorescence assay
Acinetobacter baumannii = assay: Antibacterial activity against Acinetobacter baumannii AB-3167 by broth microdilution method; assay type: functional
[3] = Inhibition of PBP1b in Pseudomonas aeruginosa ATCC 27853 after 20 mins by fluorescence assay
[4] = Inhibition of PBP2 in Pseudomonas aeruginosa ATCC 27853 after 20 mins by fluorescence assay
Pseudomonas aeruginosa [5] = assay: Antibacterial activity against Pseudomonas aeruginosa 1042-06 by broth microdilution method; assay type: functional
Klebsiella pneumoniae [6] = assay: Antibacterial activity against Klebsiella pneumoniae 1487-07 by broth microdilution method; assay type: functional
Pseudomonas aeruginosa [7] = assay: Antibacterial activity against PiuA/FptA receptor-deficient Pseudomonas aeruginosa PAO1 in iron-chelated Muller-Hinton broth medium by broth microdilution method; assay type: functional
Pseudomonas aeruginosa [8] = assay: Antibacterial activity against PiuA receptor-deficient Pseudomonas aeruginosa PAO1 in Muller-Hinton broth medium by broth microdilution method; assay type: functional
Pseudomonas aeruginosa [9] = assay: Antibacterial activity against PiuA/FpvA receptor-deficient Pseudomonas aeruginosa PAO1 in Muller-Hinton broth medium by broth microdilution method; assay type: functional
Pseudomonas aeruginosa [10] = assay: Antibacterial activity against FpvA receptor-deficient Pseudomonas aeruginosa PAO1 in iron-chelated Muller-Hinton broth medium by broth microdilution method; assay type: functional
Pseudomonas aeruginosa [11] = assay: Antibacterial activity against FpvA receptor-deficient Pseudomonas aeruginosa PAO1 in Muller-Hinton broth medium by broth microdilution method; assay type: functional
Pseudomonas aeruginosa [12] = assay: Antibacterial activity against PirA receptor-deficient Pseudomonas aeruginosa PAO1 in iron-chelated Muller-Hinton broth medium by broth microdilution method; assay type: functional
Klebsiella pneumoniae [13] = assay: Antibacterial activity against Klebsiella pneumoniae 1000-02 by broth microdilution method; assay type: functional
Pseudomonas aeruginosa [14] = assay: Ratio of MIC for PiuA/PirA receptor-deficient Pseudomonas aeruginosa PAO1 to MIC for Pseudomonas aeruginosa PAO1 in Muller-Hinton broth medium by broth microdilution method; assay type: functional
Pseudomonas aeruginosa [15] = assay: Antibacterial activity against PiuA/PirA receptor-deficient Pseudomonas aeruginosa PAO1 in Muller-Hinton broth medium by broth microdilution method; assay type: functional
Pseudomonas aeruginosa [16] = assay: Ratio of MIC for PiuA/PirA receptor-deficient Pseudomonas aeruginosa PAO1 to MIC for Pseudomonas aeruginosa PAO1 in iron-chelated Muller-Hinton broth medium by broth microdilution method; assay type: functional
Pseudomonas aeruginosa [17] = assay: Antibacterial activity against FptA receptor-deficient Pseudomonas aeruginosa PAO1 in iron-chelated Muller-Hinton broth medium by broth microdilution method; assay type: functional
Pseudomonas aeruginosa [18] = assay: microbe, parasite or virus in culture; conditions: 1091-05
Description: Antibacterial activity against Pseudomonas aeruginosa 1091-05 by broth microdilution method

Pseudomonas aeruginosa [19] = assay: Antibacterial activity against PirA receptor-deficient Pseudomonas aeruginosa PAO1 in Muller-Hinton broth medium by broth microdilution method; assay type: functional
Pseudomonas aeruginosa [20] = assay: Antibacterial activity against FptA receptor-deficient Pseudomonas aeruginosa PAO1 in Muller-Hinton broth medium by broth microdilution method; assay type: functional
Pseudomonas aeruginosa [21] = assay: Antibacterial activity against PiuA/FptA receptor-deficient Pseudomonas aeruginosa PAO1 in Muller-Hinton broth medium by broth microdilution method; assay type: functional
Pseudomonas aeruginosa [22] = assay: Ratio of MIC for PiuA receptor-deficient Pseudomonas aeruginosa PAO1 to MIC for Pseudomonas aeruginosa PAO1 in Muller-Hinton broth medium by broth microdilution method; assay type: functional
Pseudomonas aeruginosa [23] = assay: Antibacterial activity against PiuA receptor-deficient Pseudomonas aeruginosa PAO1 in iron-chelated Muller-Hinton broth medium by broth microdilution method; assay type: functional
Pseudomonas aeruginosa [24] = assay: Antibacterial activity against Pseudomonas aeruginosa PAO1 in iron-chelated Muller-Hinton broth medium by broth microdilution method; assay type: functional
Pseudomonas aeruginosa [25] = assay: Antibacterial activity against PiuA/FpvA receptor-deficient Pseudomonas aeruginosa PAO1 in iron-chelated Muller-Hinton broth medium by broth microdilution method; assay type: functional
Pseudomonas aeruginosa [26] = assay: Antibacterial activity against PiuA/PirA receptor-deficient Pseudomonas aeruginosa PAO1 in iron-chelated Muller-Hinton broth medium by broth microdilution method; assay type: functional
Pseudomonas aeruginosa [27] = assay: Antibacterial activity against Pseudomonas aeruginosa PAO1 in Muller-Hinton broth medium by broth microdilution method; assay type: functional
[28] = Fraction unbound in human plasma; assay type: ADME, cell-free
[29] = Plasma clearance in Wistar Han rat at 1 mg/kg, iv by LC/MS/MS analysis; assay type: ADME, organism-based; set-up: dose 1 mg/kg, route intravenous
Rattus norvegicus = assay: Intrinsic clearance in Wistar Han rat at 1 mg/kg, iv by LC/MS/MS analysis; assay type: ADME, organism-based; set-up: dose 1 mg/kg, route intravenous; conditions: in vivo
[30] = Fraction unbound in rat plasma; assay type: ADME, cell-free
[31] = Fraction unbound in mouse plasma; assay type: ADME, cell-free
Pseudomonas aeruginosa [32] = assay: Antibacterial activity against Pseudomonas aeruginosa expressing metallo-beta-lactamase by broth microdilution method; assay type: functional
Klebsiella pneumoniae [33] = assay: Antibacterial activity against Klebsiella pneumoniae expressing KPC by broth microdilution method; assay type: functional
Acinetobacter sp. = assay: Antibacterial activity against Acinetobacter spp. by broth microdilution method; assay type: functional
Escherichia coli [34] = assay: Antibacterial activity against Escherichia coli expressing ESBL by broth microdilution method; assay type: functional
Klebsiella pneumoniae [35] = assay: Antibacterial activity against Klebsiella pneumoniae expressing ESBL by broth microdilution method; assay type: functional
Escherichia coli [36] = assay: Antibacterial activity against Escherichia coli expressing CTX-M by broth microdilution method; assay type: functional
Pseudomonas aeruginosa [37] = assay: Antibacterial activity against Pseudomonas aeruginosa from cystic fibrosis patients by broth microdilution method; assay type: functional
Klebsiella pneumoniae [38] = assay: Antibacterial activity against Klebsiella pneumoniae expressing defined beta-lactamase by broth microdilution method; assay type: functional
Escherichia coli [39] = assay: Antibacterial activity against Escherichia coli expressing defined beta-lactamase by broth microdilution method; assay type: functional

IC50 [1] [nM]	IC50 [2] [nM]	MIC (Acinetobacter baumannii) [µg/mL]	IC50 [3] [nM]	IC50 [4] [µM]	MIC (Pseudomonas aeruginosa [5]) [µg/mL]	MIC (Klebsiella pneumoniae [13]) [µg/mL]	SMILES	MIC (Klebsiella pneumoniae [6]) [µg/mL]	MIC (Pseudomonas aeruginosa [18]) [µg/mL]	MIC50 (Pseudomonas aeruginosa [32]) [µg/mL]	MIC90 (Pseudomonas aeruginosa [32]) [µg/mL]	MIC50 (Klebsiella pneumoniae [33]) [µg/mL]	MIC90 (Klebsiella pneumoniae [33]) [µg/mL]	MIC50 (Acinetobacter sp.) [µg/mL]	MIC90 (Acinetobacter sp.) [µg/mL]	MIC50 (Escherichia coli [34]) [µg/mL]	MIC90 (Escherichia coli [34]) [µg/mL]	MIC50 (Klebsiella pneumoniae [35]) [µg/mL]	MIC90 (Klebsiella pneumoniae [35]) [µg/mL]	MIC50 (Escherichia coli [36]) [µg/mL]	further results
110	6	0.125	150	> 300	0.25	1	CC(C)(O/N=C(\C(=O)N[C@@H]1C(=O)N(S(=O)(=O)[O-])[C@@H]1CNC(=O)c1cc(-c2cc(=O)c(O)cn2O)no1)c1csc(N)n1)C(=O)[O-].[Na+].[Na+]	–	0.25	–	–	–	–	–	–	–	–	–	–	–	MIC (Pseudomonas aeruginosa [7]): 1 µg/mL; MIC (Pseudomonas aeruginosa [8]): 8 µg/mL; MIC (Pseudomonas aeruginosa [9]): 8 µg/mL; MIC (Pseudomonas aeruginosa [10]): 0.125 µg/mL; MIC (Pseudomonas aeruginosa [11]): 0.125 µg/mL; MIC (Pseudomonas aeruginosa [12]): 0.25 µg/mL; Ratio (Pseudomonas aeruginosa [14]): >=64; MIC (Pseudomonas aeruginosa [15]): 32 µg/mL; Ratio (Pseudomonas aeruginosa [16]): >=64; MIC (Pseudomonas aeruginosa [17]): 0.25 µg/mL; MIC (Pseudomonas aeruginosa [19]): 0.25 µg/mL; MIC (Pseudomonas aeruginosa [20]): 0.25 µg/mL; MIC (Pseudomonas aeruginosa [21]): 8 µg/mL; Ratio (Pseudomonas aeruginosa [22]): 32; MIC (Pseudomonas aeruginosa [23]): 1 µg/mL; MIC (Pseudomonas aeruginosa [24]): 0.25 µg/mL; MIC (Pseudomonas aeruginosa [25]): 0.5 µg/mL; MIC (Pseudomonas aeruginosa [26]): 16 µg/mL; MIC (Pseudomonas aeruginosa [27]): 0.25 µg/mL
–	–	0.125	–	–	2	4	CC(C)(O/N=C(\C(=O)N[C@@H]1C(=O)N(S(=O)(=O)[O-])[C@@H]1CNC(=O)OCc1cc(=O)c(O)cn1O)c1csc(N)n1)C(=O)[O-].[Na+].[Na+]	–	0.25	–	–	–	–	–	–	–	–	–	–	–	fraction unbound [28]: 0.51; clearance [29]: 14.2 mL/min/kg; CL (Rattus norvegicus): 29 mL/min/kg; fraction unbound [30]: 0.61; fraction unbound [31]: 0.72

More lines, now with the values behind:

SMILES	IC50 [1] [nM]	IC50 [2] [nM]	MIC (Acinetobacter baumannii) [µg/mL]	IC50 [3] [nM]	IC50 [4] [µM]	MIC (Pseudomonas aeruginosa [5]) [µg/mL]	MIC (Klebsiella pneumoniae [13]) [µg/mL]	MIC (Klebsiella pneumoniae [6]) [µg/mL]	MIC (Pseudomonas aeruginosa [18]) [µg/mL]	MIC50 (Pseudomonas aeruginosa [32]) [µg/mL]	MIC90 (Pseudomonas aeruginosa [32]) [µg/mL]	MIC50 (Klebsiella pneumoniae [33]) [µg/mL]	MIC90 (Klebsiella pneumoniae [33]) [µg/mL]	MIC50 (Acinetobacter sp.) [µg/mL]	MIC90 (Acinetobacter sp.) [µg/mL]	MIC50 (Escherichia coli [34]) [µg/mL]	MIC90 (Escherichia coli [34]) [µg/mL]	MIC50 (Klebsiella pneumoniae [35]) [µg/mL]	MIC90 (Klebsiella pneumoniae [35]) [µg/mL]	MIC50 (Escherichia coli [36]) [µg/mL]	further results
Nc1nc(/C(=N/OC2(C(=O)O)CCC2)C(=O)N[C@@H]2C(=O)N(S(=O)(=O)O)[C@@H]2CNC(=O)NCc2cc(=O)c(O)cn2O)cs1	340	66	0.125 (≈ 0.194 µM)	2460	> 300	1 (≈ 1.55 µM)	–	0.5 (≈ 0.776 µM)	–	–	–	–	–	–	–	–	–	–	–	–	–
NCC[C@H](O)C(=O)N[C@@H]1C[C@H](N)[C@@H](O[C@H]2O[C@H](CN)[C@@H](O)[C@H](O)[C@H]2O)[C@H](O)[C@H]1O[C@H]1O[C@H](CO)[C@@H](O)[C@H](N)[C@H]1O [AMIKACIN]	–	–	1 (≈ 1.71 µM)	–	–	8 (≈ 13.7 µM)	–	64 (≈ 109 µM)	2 (≈ 3.42 µM)	> 64	> 64	32 (≈ 54.6 µM)	> 64	4 (≈ 6.83 µM)	> 64	8 (≈ 13.7 µM)	64 (≈ 109 µM)	4 (≈ 6.83 µM)	64 (≈ 109 µM)	8 (≈ 13.7 µM)	MIC90 (Escherichia coli [36]): 32 µg/mL (≈ 54.6 µM); MIC50 (Pseudomonas aeruginosa [37]): 8 µg/mL (≈ 13.7 µM); MIC90 (Pseudomonas aeruginosa [37]): > 64 µg/mL; MIC50 (Klebsiella pneumoniae [38]): 4 µg/mL (≈ 6.83 µM); MIC90 (Klebsiella pneumoniae [38]): > 64 µg/mL; MIC50 (Escherichia coli [39]): 1 µg/mL (≈ 1.71 µM); MIC90 (Escherichia coli [39]): 16 µg/mL (≈ 27.3 µM)
C[C@H]1[C@H](NC(=O)/C(=N\OC(C)(C)C(=O)O)c2csc(N)n2)C(=O)N1S(=O)(=O)O [AZTREONAM]	3340	8	4 (≈ 9.19 µM)	2870	> 300	64 (≈ 147 µM)	> 64	> 64	4 (≈ 9.19 µM)	8 (≈ 18.4 µM)	16 (≈ 36.7 µM)	> 64	> 64	32 (≈ 73.5 µM)	> 64	64 (≈ 147 µM)	> 64	32 (≈ 73.5 µM)	> 64	64 (≈ 147 µM)	MIC90 (Escherichia coli [36]): > 64 µg/mL; MIC50 (Pseudomonas aeruginosa [37]): 8 µg/mL (≈ 18.4 µM); MIC90 (Pseudomonas aeruginosa [37]): 64 µg/mL (≈ 147 µM); MIC50 (Klebsiella pneumoniae [38]): 64 µg/mL (≈ 147 µM); MIC90 (Klebsiella pneumoniae [38]): > 64 µg/mL; MIC50 (Escherichia coli [39]): 4 µg/mL (≈ 9.19 µM); MIC90 (Escherichia coli [39]): > 64 µg/mL
